Laboratory results as given in patent US20140088124A1, “IMIDAZOLE DERIVATIVES” (priority 2011, published 2014).

target: T1, human DGAT1 (Homo sapiens, UniProt O75907); assay: DGAT1 CPM Assay; format: biochemical; details: human DGAT1, CPM fluorescence, 1 hour incubation at room temperature
T1 sequence (O75907 1-488): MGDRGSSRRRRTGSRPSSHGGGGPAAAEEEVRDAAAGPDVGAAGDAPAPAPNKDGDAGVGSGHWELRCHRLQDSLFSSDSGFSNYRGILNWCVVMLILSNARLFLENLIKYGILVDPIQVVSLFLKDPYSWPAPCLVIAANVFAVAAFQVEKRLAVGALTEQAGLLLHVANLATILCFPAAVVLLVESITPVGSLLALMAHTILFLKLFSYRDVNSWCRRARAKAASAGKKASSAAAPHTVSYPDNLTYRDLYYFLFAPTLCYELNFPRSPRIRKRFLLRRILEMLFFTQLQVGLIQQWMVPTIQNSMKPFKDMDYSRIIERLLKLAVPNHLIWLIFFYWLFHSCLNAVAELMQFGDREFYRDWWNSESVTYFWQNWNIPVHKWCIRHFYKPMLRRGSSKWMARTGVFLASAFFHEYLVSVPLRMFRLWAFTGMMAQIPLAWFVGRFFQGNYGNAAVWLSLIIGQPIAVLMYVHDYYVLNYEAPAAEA
Protocol: 20 uL of 90 uM CPM reagent in 90% ethanol was added after 1 hour incubation at room temperature.

In order of falling IC50:
1. Cc1ccc2[nH]c(-c3ccc(N4CCC(O[C@H]5CC[C@@](C)(C(=O)O)CC5)CC4)nc3)nc2n1 [Example 110]  425 nM
2. O=C(O)C1(COC2CCN(c3ccc(-c4nc5ccccc5[nH]4)cn3)CC2)CCOCC1 [Example 49]  220 nM
3. O=C(O)C1(C(=O)O)CC(OC2CCN(c3ccc(-c4nc5ccccc5[nH]4)cn3)CC2)C1 [Example 92]  147 nM
4. O=C(O)C1(C(=O)O)CC(OC2CCN(c3ccc(-c4nc5cc(F)c(F)cc5[nH]4)cn3)CC2)C1 [Example 94]  122 nM
5. CC(C)(COC1CCN(c2ccc(-c3nc4cc(Cl)cnc4[nH]3)cn2)CC1)C(=O)O [Example 63]  118 nM
6. O=C(O)C1(COC2CCN(c3ccc(-c4nc5ccc(F)cc5[nH]4)cn3)CC2)CCOCC1 [Example 46]  97 nM
7. CC(C)(COC1CCN(c2ccc(-c3nc4ccccc4[nH]3)cn2)CC1)C(=O)O [Example 36]  67 nM
8. O[C@@H]1CO[C@H]2[C@@H]1OC[C@@H]2OC1CCN(c2ccc(-c3nc4cc(F)ccc4[nH]3)cn2)CC1 [Example 125]  64 nM
9. COc1ccc2[nH]c(-c3ccc(N4CCC(O[C@H]5CC[C@H](CC(=O)O)CC5)CC4)nc3)nc2n1 [Example 22]  51 nM
10. COc1ccc2nc(-c3ccc(N4CCC(O[C@H]5CC[C@H](N6CC(=O)NS6(=O)=O)CC5)CC4)nc3)[nH]c2n1 [Example 120]  29 nM
11. C[C@]1(C(=O)O)CC[C@H](OC2CCN(c3ccc(-c4nc5ccccc5[nH]4)cn3)CC2)CC1 [Example 101]  27 nM
12. O=C(NS(=O)(=O)c1ccccn1)[C@H]1CC[C@H](OC2CCN(c3ccc(-c4nc5cc(F)ccc5[nH]4)cn3)CC2)CC1 [Example 84]  25 nM
13. O=C(NS(=O)(=O)C1CC1)[C@H]1CC[C@H](OC2CCN(c3ccc(-c4nc5cc(F)ccc5[nH]4)cn3)CC2)CC1 [Example 83]  17 nM
14. CC(C)S(=O)(=O)NC(=O)[C@H]1CC[C@H](OC2CCN(c3ccc(-c4nc5cc(F)ccc5[nH]4)cn3)CC2)CC1 [Example 81]  17 nM
15. O=C(O)C[C@H]1CC[C@H](OC2CCN(c3ccc(-c4nc5nc(C(F)(F)F)ccc5[nH]4)cn3)CC2)CC1 [Example 23]  16 nM
16. CCOC(=O)[C@H]1CC[C@@H](OC2CCN(c3ccc(-c4nc5cc(Cl)ccc5[nH]4)cn3)CC2)CC1 [Example 75]  14 nM
17. O=C(O)C[C@H]1CC[C@@H](OC2CCN(c3ccc(-c4nc5cc(F)ccc5[nH]4)cn3)C2)CC1 (single isomer, unassigned) [Example 139]  12 nM
18. O=C(O)[C@H]1CC[C@H](OC2CCN(c3ccc(-c4nc5ccc(C(F)(F)F)nc5[nH]4)cn3)CC2)CC1 [Example 70, trans-4-[(1-{5-[5-(trifluoromethyl)-3H-imidazo[4,5-b]pyridin-2-yl]pyridin-2-yl}piperidin-4-yl)oxy]cyclohexanecarboxylic acid]  11 nM
19. C[C@]1(C(=O)O)CC[C@H](OC2CCN(c3ccc(-c4nc5ccc(F)cc5[nH]4)cn3)CC2)CC1 [Example 99]  9 nM
20. O=C(NS(=O)(=O)c1ccc(F)cc1)[C@H]1CC[C@H](OC2CCN(c3ccc(-c4nc5cc(F)ccc5[nH]4)cn3)CC2)CC1 [Example 88]  9 nM
21. O=C(O)C1(COC2CCN(c3ccc(-c4nc5ccc(C(F)(F)F)cc5[nH]4)cn3)CC2)CC1 [Example 38]  8 nM
22. O=C(O)C[C@H]1CC[C@H](OC2CCN(c3ccc(-c4nc5cccc(Br)c5[nH]4)cn3)CC2)CC1 [Example 14]  7 nM
23. O=C(O)C[C@H]1CC[C@@H](OC2CCN(c3ccc(-c4nc5ccc(C(F)(F)F)cc5[nH]4)cn3)CC2)CC1 [Example 5]  5 nM
24. O=C1CN([C@H]2CC[C@H](OC3CCN(c4ccc(-c5nc6cc(C(F)(F)F)ccc6[nH]5)cn4)CC3)CC2)S(=O)(=O)N1 [Example 118]  5 nM
25. CC(C)(COC1CCN(c2ccc(-c3nc4cc(C(F)(F)F)ccc4[nH]3)cn2)CC1)C(=O)O [Example 34]  4 nM
26. O=C(O)C[C@H]1CC[C@@H](OC2CCN(c3ccc(-c4nc5cc(F)c(F)cc5[nH]4)cn3)CC2)CC1 [Example 25]  3 nM
